Assay results as given in patent US20240209022A1, “NOVEL PEPTIDE HAVING ANTI-INFLAMMATORY AND TISSUE REGENERATIVE ACTIONS” (KOREA RESEARCH INSTITUTE OF BIOSCIENCE AND BIOTECHNOLOGY, priority 2020, published 2024).
“Also recorded” adds a separate entry of the source.

Experiments:
[1] = system: MIA-induced degenerative arthritis model; assay: MIA-induced degenerative arthritis model; assay type: in vivo, C57BL/6J mice; conditions: for diameter of the knee joint: day 1 after MIA injection, i.p.
Description: As a degenerative arthritis model, 9-week-old specific pathogen free (SPF) male C57BL/6J mice were anesthetized, the area around the right knee joint was cleanly shaved, and 10 μL of MIA solution (monosodium iodoacetate 0.5 mg in 10 μL 0.9% sterile saline) was injected into the knee joint cavity to induce arthritis. From 3 days before MIA (monosodium iodoacetate) solution injection, Amuc_1409 or PEP001, PEP002, PEP003, PEP004, PEP005, PEP006, PEP007, PEP008, PEP009, PEP010, PEP011, PEP012, or PEP013 was dissolved in PBS buffer at a concentration of 6.7 μM and then injected into the mouse peritoneal cavity at 150 μL per animal once a day at the same time. On day 3 (0 days) after administration of Amuc_1409 or PEP001 to PEP013, an additional intraperitoneal injection was given 1 hour before MIA injection, the drug was intraperitoneally injected once a day at the same time after MIA injection, and the experiment was terminated on the 30th day after MIA injection. In the control group, the same volume of PBS buffer was injected intraperitoneally. After MIA injection, the diameter of the knee joint was measured using a caliper for 7 days at 2-day intervals (0, 1, 3, 5, and 7 days) to evaluate swelling caused by inflammatory changes of the joint. […] At this time, the weight bearing on the limb was lower as arthritis was more severe. The weight-bearing weight (g) of each of both paws was measured, and in this experiment, the value was expressed as the ratio (%) of the right hind limb with arthritis to the total hind limb. Weight bearing ratio (%)=weight-bearing weight of right hind limb with arthritis (g)/weight-bearing weight of both hind limbs (g)×100 After termination of the experiment, the test animals were sacrificed, then the knee joint tissue of the mouse was fixed with 10% neutral buffered formalin, and the bone was decalcified with a 0.5 M EDTA solution. Next, the joint tissue was embedded in paraffin to prepare a 5 μm joint section, and Safranin O staining was performed to histopathologically analyze the degree of damage to the cartilage tissue. At this time, the degree of damage to the cartilage tissue was evaluated by examining the degree of safranin O staining of the sections and scored according to OARSI (Osteoarthritis Research Society International grade) guidelines. The scoring criteria according to the OARSI guidelines are as follows (Table 1). [table]

[2] = system: collagen induced arthritis (CIA) model; assay: Collagen induced arthritis (CIA) rheumatoid arthritis model; assay type: in vivo, DBA/1J mice; conditions: vs PBS buffer group; for thickness of the ankle joint: at the end of the experiment
[3] = system: non-alcoholic hepatitis model; assay: High-fat diet-induced non-alcoholic steatohepatitis model, liver gene expression; assay type: in vivo, C57BL/6J mice; conditions: RT-qPCR; vs PBS buffer group
Description: A non-alcoholic hepatitis model was induced by feeding a high-fat diet to 8-week-old SPF male C57BL/6J mice. The experiment for groups administered with Amuc_1409 and PEP001 to PEP005 was performed as follows. Mice fed a high-fat diet for 45 weeks were fed a high-fat diet for an additional 3 weeks, and Amuc_1409 was dissolved in PBS buffer at a concentration of 2.4 μM and then orally administered to the mice by 150 μL per animal at the same time once a day until the end of the experiment, or mice fed a high-fat diet for 8 weeks were fed a high-fat diet for an additional 3 weeks, and PEP001, PEP002, PEP003, PEP004, or PEP005 was dissolved in PBS buffer at a concentration of 2.4 μM and then orally administered to the mice by 150 μL per animal at the same time once a day until the end of the experiment. To the control group, PBS buffer was orally administered in the same manner. The experiment for groups administered with PEP006 to PEP013 was performed as follows. The non-alcoholic hepatitis model was induced by ad libitum feeding of a high-fat diet for 32, 50, or 53 weeks. Mice fed a high-fat diet for 50 weeks were fed a high-fat diet for an additional 3 weeks, and a novel tetrapeptide PEP006, PEP007, PEP008, PEP009, or PEP010 was dissolved in PBS buffer at a concentration of 0.2 μg/150 μL and then orally administered to the mice by 150 μL per animal at the same time until the end of the test, and mice fed a high-fat diet for 53 weeks were fed a high-fat diet for an additional 3 weeks, and a novel […] PEP011, PEP012, or PEP013 was dissolved in PBS buffer at a concentration of 0.2 μg/150 μL and then orally administered to the mice by 150 μL per animal at the same time until the end of the test. To the control group, PBS buffer was orally administered in the same manner. At the end of the experiment, a part of the liver harvested was homogenized with Trizol to extract RNA. Reverse transcriptase was added to the obtained RNA and reacted to synthesize cDNA, and SYBR Green and primers were added to perform quantitative real-time PCR (RT-qPCR), and then the expression levels of genes such as Tnfα, Il-1β, Il-10, and Il-1rn were quantified.

[4] = system: full-thickness skin defect wound-induced model; assay: Full-thickness skin defect wound-induced model (tail); assay type: in vivo, C57BL/6J mice; conditions: 120 μM, 25 μL applied once a day for 28 days; vs vehicle
Description: In order to confirm the tissue regeneration efficacy of the novel peptides, an experiment was conducted using a wound-induced model induced by a full-thickness skin defect of mouse's tail. For a full-thickness skin defect wound-induced model, 9-week-old specific pathogen free (SPF) male C57BL/6J mice were anesthetized, and then in order to indicate full-thickness wounding, a full-thickness wound with a size of 10 mm×3 mm was made on the dorsal part of the mouse's tail, about 1.0 cm away from the base of the mouse's tail, using an aseptic dissection mass No. 10. Bleeding was stopped by compressing the wound, and the wound was covered with a film spray dressing (Cavilon, 3M). For 28 days from the day of wound induction, Amuc_1409 or PEP001 to PEP013 were each dissolved in vehicle (50% ethanol, 20% propylene glycol, 30% water) at a concentration of 120 μM and then applied to the wound site by 25 μL per animal once a day. For the control group, the same volume of vehicle (50% ethanol, 20% propylene glycol, 30% water) was applied to the wound site. The test was terminated on day 29 after wound induction. In order to observe the wound healing effect, the wound sites of animals in each test group were individually photographed using a digital camera at a constant height from the wound for 28 days at 7-day intervals from the day of wound induction, and the wound area was measured using the Image J Soft program.

[5] = 2 weeks and 4 weeks after MIA injection, vs PBS buffer group
[6] = 2 weeks after MIA injection, vs PBS buffer group
[7] = 4 weeks after MIA injection, vs PBS buffer group
[8] = days 3, 5, and 7 after MIA injection, vs PBS buffer group

Molecule	weight bearing ratio [1, 5]	thickness of the ankle joint [2]	arthritis index (clinical score by date) [2]	swelling of the hind paws by macrophotography [2]	Ifnγ gene expression in liver tissue [3]	Il-1p gene expression in liver tissue [3]	wound area [4]	wound size (visually confirmed) [4]	weight bearing ratio [1, 6]	weight bearing ratio [1, 7]	Tnfα gene expression in liver tissue [3]	diameter of the knee joint ([1]; vs PBS buffer group)	thickness of the knee joint [1, 8]	11-10, which is an anti-inflammatory index (liver gene expression) [3]	further results
AIS [PEP013]	tended to be improved	tended to decrease	tended to decrease	relieved overall	tended to decrease	significantly decreased	significantly decreased	rapidly decreased							
AGAY (PEP006)		significantly decreased	significantly decreased on day 28 after the first injection of CII; also recorded: tended to decrease from day 30 to the experiment end day	remarkably improved			significantly decreased	rapidly decreased	significantly increased	significantly increased	tended to decrease				
AVSSIKGAY (PEP001)	significantly increased	significantly decreased	significantly decreased from day 30 after the first CII injection to the experiment end day	reduced overall		decreased close to a significant level	significantly decreased	rapidly decreased				tended to decrease	significantly decreased	significantly increased	
AVS (AVSSIKGAY) [PEP004]	significantly increased	significantly decreased	significantly decreased from day 32 after the first CII injection to the experiment end day	reduced overall		decreased close to a significant level	significantly decreased	rapidly decreased			significantly decreased	significantly decreased	significantly decreased	significantly increased	
RGAY (PEP007)		significantly decreased	significantly decreased from day 28 after the first CII injection to the experiment end day	remarkably improved	tended to decrease		significantly decreased	rapidly decreased	significantly increased	significantly increased	significantly decreased	significantly decreased			thickness of the knee joint ([1]; day 3 after MIA injection, vs PBS buffer group): significantly decreased; thickness of the knee joint ([1]; day 5 after MIA injection, vs PBS buffer group): tended to decrease; thickness of the knee joint ([1]; day 7 after MIA injection, vs PBS buffer group): significantly decreased; Il-6 gene expression in liver tissue [3]: tended to decrease
Amuc_1409: SEQ ID NO: 15, functional fragment obtained by eliminating the leader sequence from SEQ ID NO: 14; protein derived from Akkermansia muciniphila (protein, Amuc_1409_fragment, protein derived from Akkermansia muciniphila) IPESSVPAAAVSSIKGAYPNAGPIEWDSEMHGMERIYEAEFRINGFQFDVKIAPDGKIVRIKEEIAASSLPEAVRASVLKRYPGCRIKEAEKITEGELVRYKVEVADSRDDYDVLIAPDGNILHVDR	significantly increased	significantly decreased		reduced overall		significantly decreased	significantly decreased	rapidly decreased				significantly decreased	significantly decreased	significantly increased	histopathological findings in knee joint tissue, safranin O staining ([1]; after termination of the experiment): only a slight loss of safranin O was observed in the cartilage zone and the overall cartilage morphology was maintained; degree of cartilage destruction by OARSI score ([1]; vs PBS buffer group): significantly decreased; arthritis index ([2]; after day 30 until the experiment end day): significantly decreased; arthritis index ([2]; day 30 after the first CII injection): decreased close to a significant level; histopathological changes in hind paw tissue (H&E): inflammatory cell infiltration, synovial proliferation, pannus formation [2]: significantly diminished; quantitative histopathological arthritis index [2]: significantly decreased or tended to decrease; Il-1rn, additional anti-inflammatory index (liver gene expression) [3]: significantly increased
